Data as given in patent US20150284347A1, “NEW BENZENE SULFONAMIDE THIAZOLE COMPOUNDS” (INSERM (INSTITUT NATIONAL DE LA SANTÉ ET DE LA RECHERCHE …, priority 2012, published 2015).

Experiments:
[1] = system: melanoma cells resistant to dabrafenib; test: Trypan blue cell viability, melanoma cells resistant to dabrafenib; assay type: cell-based, human; details: patient melanoma cells resistant to dabrafenib, FIG. 5
Method: The measure of cell viability was performed in the same way as for FIG. 1. Results are expressed as percentage of cells alive relatively to the number of living cells in the presence of DMSO, which is a negative control
Cells were seeded in 6-well plates (60000 cells/well), depleted and incubated with compounds for the times indicated. Then cells were detached in the presence of 2000 of HyQTase (Thermo) and 2 ml of RPMI 1640 Glutamax (Gibco) was added to the cell solution. 100 of this solution was stained for 1 minute with 100 of 0.4% trypan blue before counting with a Malassez chamber.
Melanoma cells resistant to dabrafenib wee prepared from patients treated and presented a resistance to dabrafenib. dabrafenib, [HA15], [SR47] and [SR50] were tested on these resistant cells, in order to determine their activity on cell viability of resistant melanoma cells, as illustrated in FIG. 5.

A375 melanoma cells = test: A375 melanoma xenograft tumor development in nude mice; assay type: in vivo; details: 0.7 mg/mouse/day over 24 days, athymic nude mice
Method: To assess a potential antineoplastic effect of (HA15) and (SR50) in vivo, A375 melanoma cells (2.5×10^6) were injected subcutaneously in 6-week-old female athymic nude mice and treated 5 days later by injection of vehicle (labrafil) or different compounds such as PLX4032, (HA15) and (SR50) (0.7 mg/mouse/day) over a period of 24 days. Inhibitory effect is expressed as the tumor volume (mm^3) on day 8, 11, 15, 18, 22 and 24.
Athymic BALB/C nu/nu mice (Harlan) were used. The animals were 6 weeks old and weighed between 20 and 25 g. The mice were housed in the animal's C3M in a 12 h/12 h cycle. The animals received water and food ad libitum. Mice were first acclimated for one week and then injected with A375 cells (2.5 million cells in 200 μl of PBS) subcutaneously into the right and left sides. Treatment was started eight days after injection of cancer cells (when tumors were visible). The various compounds were diluted in a mixture of Labrafil (90%) (Gattefosse), Tween 80 (1%) and N,N-Dimethylacetamide (9%). Five groups of six mice treated every day intraperitoneally with 0.7 mg/day of PLX4032, SR44 (HA15), SR47 (HA32), SR50 (JG25) or with the mixture of Labrafil in control were defined. Three times a week the tumor size was measured using a caliper. […]

normal human melanocytes = test: Trypan blue cell viability, normal melanocytes; assay type: cell-based; details: 10 μM, FIG. 2
Method: Primary cell cultures of human normal melanocytes were prepared from human foreskin. In order to determine the effect of compound HA15 on cell viability of melanocytes and fibroblasts, 10 μM of ciglitazone or 10 μM of HA15 were added to the cell samples. The measure of cell viability was performed in the same way as for FIG. 1. Results are expressed as the percentage of living cells relatively to the number of living cells in the presence of DMSO, as for FIG. 1. Normal human melanocytes (NHM) prepared from foreskins of newborns were grown under 5% CO2 at 37° C. in MCDB 153 (Sigma) supplemented with 2% FCS, bovine pituitary extract (10 μg/ml), PMA (8 nM), bFGF (ing/nil), insulin (5 μg/ml), hydrocortisone (0.5 μg/ml), forskolin (10 μM), gentamicin (20 μg/ml), penicillin/streptomycin/amphotericin B (100 U/ml) (Invitrogen). Cells were seeded in 6-well plates (60000 cells/well), depleted and incubated with compounds for the times indicated. Then cells were detached in the presence of 2000 of […] (Thermo) and 2 ml of RPMI 1640 Glutamax (Gibco) was added to the cell solution. 100 of this solution was stained for 1 minute with 100 of 0.4% trypan blue before counting with a Malassez chamber. The effect of compound HA15 on cell viability of melanocytes and fibroblasts was studied, as illustrated by FIG. 2. Primary cell cultures of human normal melanocytes were prepared from human foreskin. […]

normal human fibroblasts = test: Trypan blue cell viability, normal fibroblasts; assay type: cell-based; details: 10 μM, FIG. 2
Method: Primary cell cultures of human normal melanocytes were prepared from human foreskin. In order to determine the effect of compound HA15 on cell viability of melanocytes and fibroblasts, 10 μM of ciglitazone or 10 μM of HA15 were added to the cell samples. The measure of cell viability was performed in the same way as for FIG. 1. Results are expressed as the percentage of living cells relatively to the number of living cells in the presence of DMSO, as for FIG. 1. Normal human fibroblasts prepared from foreskins of newborns were grown under 5% CO2 at 37° C. in DMEM medium supplemented with 10% FCS and penicillin/streptomycin (100 U/ml/[…]). Cells were seeded in 6-well plates (60000 cells/well), depleted and incubated with compounds for the times indicated. Then cells were detached in the presence of 2000 of […] (Thermo) and 2 ml of RPMI 1640 Glutamax (Gibco) was added to the cell solution. 100 of this solution was stained for 1 minute with 100 of 0.4% trypan blue before counting with a Malassez chamber. The effect of compound HA15 on cell viability of melanocytes and fibroblasts was studied, as illustrated by FIG. 2. Primary cell cultures of human normal melanocytes were prepared from human foreskin. In order to determine the effect of compound HA15 on cell viability of melanocytes and fibroblasts, 10 μM of ciglitazone or 10 μM of HA15 were added to the cell samples. […]

phosphorylation = test: Western blot of MAP vemurafenib activation on A375 melanoma cells; assay type: cell-based; details: FIG. 6
Method: FIG. 6: Western Blots showing the effect of compounds of the invention and dabrafenib on MAP Vemurafenib activation on A375 melanoma cells.
Proteins were extracted in Fisher buffer containing TRIS-HCl pH 7.5 50 mM, NaCl 15 mM, Triton X-100 1% and proteases and phosphatases inhibitors. Briefly, cell lysates (30 μg) were separated by SDS-PAGE, transferred onto a PVDF membrane (Millipore, Molsheim, France) and then exposed to the appropriate antibodies. Proteins were visualized with the ECL system from Amersham (Arlington, Heights, Ill., USA). The western blots shown are representative of at least 3 independent experiments.
Indeed, dabrafenib as PLX4032 inhibits activation of B-Raf on B-Raf V600E mutated melanoma. The inhibition of B-Raf leads to inhibition of MAP Vemurafenib cascade and could be visualized through inhibition of MAP vemurafenib phosphorylation.

## CC(=O)Nc1nc(-c2ccc(NS(=O)(=O)c3cccc4c(N(C)C)cccc34)cc2)cs1 [HA32, N-(4-(4-(5-(dimethylamino)naphthalene-1-sulfonamido)phenyl)thiazol-2-yl)acetamide]
[1]
  cell viability of resistant melanoma cells: inhibit cell viability of resistant melanoma cells

## CC(=O)Nc1nc(-c2cccc(NS(=O)(=O)c3ccc(C)cc3)c2)cs1 [SR50, N-(4-(3-(4-methylphenylsulfonamido)phenyl)thiazol-2-yl)acetamide]
A375 melanoma cells
  ability of cells to develop visible tumors: markedly attenuated
[1]
  cell viability of resistant melanoma cells: inhibit cell viability of resistant melanoma cells

## CC1(COc2ccc(CC3SC(=O)NC3=O)cc2)CCCCC1 (centres unmarked) [ciglitazone, reference compound]
Normal human melanocytes
  cell viability of normal melanocytes: not affected
Normal human fibroblasts
  cell viability of normal fibroblasts: not affected

## CC(C)(C)c1nc(-c2cccc(NS(=O)(=O)c3c(F)cccc3F)c2F)c(-c2ccnc(N)n2)s1 [dabrafenib]
[1]
  cell viability of resistant melanoma cells: contrary to dabrafenib inhibit cell viability of resistant melanoma cells
phosphorylation
  MAP vemurafenib expression: did not modulate
phosphorylation; versus DMSO
  MAP vemurafenib phosphorylation: complete inhibition
